Values joined by “and” are separate entries in the source; they are usually repeats but may differ in a detail not shown here. Equal entries are not always repeated. Where two headings read alike, the source gives them in different places.
Assays:
[1] = system: TNBS-induced colitis in the rat; test: TNBS-induced colitis model of inflammatory bowel disease in the rat;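 further: rat colitis induced by intracolonic TNBS in 50% ethanol, distal colon assessed at sacrifice on day 7, with saline-instilled vehicle-treated rats as controls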
Protocol: Colitis was induced by intracolonic instillation of the hapten TNBS (60 mg/mL) in 0.5 mL of 50% ethanol. […] An additional group of rats received saline intracolonically in place of TNBS/ethanol and was treated with vehicle at the same times as outlined above. Body weights were recorded at the beginning of the study and at days 2 and 7.
The rats were sacrificed on the 7th day after the induction of colitis and the extent of damage and inflammation was assessed. After the rats were sacrificed, the distal colon was removed and pinned out on a wax platform. The presence or absence of diarrhea was noted, as well as the presence and severity of adhesions between the colon and other organs, and the severity and extent of colonic damage. […] After scoring, a sample of colonic tissue was excised for measurement of myeloperoxidase activity as an index of granulocyte infiltration (see Wallace et al., Gastroenterology 117: in press, 1999; and Morris et al., Gastroenterology 96:795-803, 1989). This tissue sample was 1 cm long (along the axis of the colon) and 5 mm wide and was taken from a region of macroscopically visible damage (or the corresponding region in any rats in which there was no damage). The remainder of the tissue was fixed in neutral buffered formalin and processed by routine methods for subsequent evaluation by light microscopy. In a blinded manner, the sample of colonic tissue from each rat was examined for evidence of mucosal ulceration and inflammation. The percentage of the luminal surface of the section in which ulceration was present was calculated.

[2] = system: cAMP response element luciferase activity in human U937 monocytic cells; test: Potentiation of forskolin-induced CRE-luciferase activity in U937 cells; format: cell-based; details: U-937, U937 cells co-incubated with 10 μM forskolin, 4 hours, X marks this range
Protocol: Compounds of the present invention were thereby shown to provide potentiated luciferase expression in U937 cells treated with the adenylyl cyclase activator forskolin.
Human pro-monocytic U937 cells were maintained in RPMI medium containing 10% FCS and 2 mM […]. U937 cells were transiently transfected as described in Biotechniques Vol. 17(6):1058, 1994. Briefly, cells were grown in medium containing serum to a density of 5×10^6 cells/mL and then resuspended in media containing serum at a density of approximately 1×10^7 cells/mL. 400 μL of cells were transferred into the electroporation cuvette containing 10 μg of the reporter vector (PCRE-luc) in a volume of 40 μL H2O. Reporter vector DNA was prepared from DH5α E. coli using the DNA […] free kit (Qiagen) as per manufacturers instructions. U937 cells were clectroporated at room temperature using a BIORAD electroporator. Capacitance was set to 1050 μF and voltage was 280V. The time constant was noted after each electroporation. Cells were then diluted in 4 mL of media and serum and 200 μL of cells were plated per well. Cells were allowed to recover for 16-18 hours. Cells were then treated with a test compound or vehicle in the presence or absence of 10 μM forskolin for 4 hours at 37° C.
The luciferase assay was performed as per manufacturers instructions (Tropix). Briefly, cells were centrifuged for 4 minutes at 1200 rpm and media supernatant was removed. Cell pellets were lysed in 15 μL Lysis buffer (Tropix). Luciferase assay was performed using 10 μL of cell lysate with 10 μL of buffer A and 25 μL buffer B. Luciferase activity was obtained using a luminometer with a 5-second delay followed by a read time of 10 seconds.

[3] = biological target: T1, cAMP phosphodiesterase 3 from human platelets (Homo sapiens, UniProt Q14432); test: Inhibition of cAMP phosphodiesterase 3 from human platelets; format: biochemical; details: for IC50: PDE3, platelet cell extract, X marks this range
T1 construct: from tissue; host or cells: human platelets, cytoplasmic extract
Text: Compound 12 was screened for activity against 5 of the major classes of mammalian cyclic nucleotide phosphodiesterase (termed PDE 1 through 5). PDE's 1 through 4 utilize cAMP as substrate while PDE 5 uses cGMP. The broad specificity PDE inhibitor 3-isobutyl-1-methylxanthine (IBMX; Sigma; Catalogue No. 17018)) was used as a positive control in all assays. PDE's for the various assays were partially purified from the following cells/tissues; PDE 1 (bovine heart), PDE 2 (human platelets), PDE 3 (human platelets), PDE 4 (human promonocytic U937 cells) and PDE 5 (human platelets).
Platelet cell extracts were prepared as described above for the U937 cells. The PDE3 assay was performed using platelet cell extract as described above for the PDE 4 assay. Platelets contain PDE 2, 3 and 5. However PDE2 and 5 preferentially utilize cGMP, so in an assay with cAMP as a substrate they are not detected.

[4] = system: High Affinity Rolipram Binding Site of PDE4 in Mouse Brain; test: Displacement of [3H]-rolipram from its high affinity binding site (HARBS); details: ratio of IC50 for PDE4 catalytic activity to concentration displacing 50% of rolipram from HARBS
Protocol: Suspension was centrifuged twice at 30,000×G at 4° C. and the supernatant discarded. The pellet was resuspended in buffer, and adjusted to a protein concentration of 0.5 mg/mL. Drugs to be tested were dissolved in DMSO and pipetted in triplicate into a 96 well microplate at concentrations ranging from 1 to 30,000 nM. […] The plate was incubated at 4° C. for 1 hour. Contents of the plate were aspirated through a Whatman GF/C filterplate, and rinsed with 4×200 μL ice-cold buffer. […] Triplicate determinations were performed at each concentration.

[5] = system: primary human neutrophils; test: Generation of reactive oxygen species by fMLP-activated neutrophils (luminol-enhanced chemiluminescence); format: cell-based; details: Neutrophil
Text: Neutrophil activation can be measured by quantitation of ROS generated in vitro. Measurement of ROS allows specific quantitation of a pro-inflammatory species and is also a general measure of neutrophil activation. The most sensitive method for measuring the production of ROS by neutrophils is luminol-enhanced chemiluminescence. […] The assay system used to evaluate the ability of compounds to inhibit ROS generation in neutrophils is indicative of anti-inflammatory activity that may be efficacious in disease states including but not limited to rheumatoid arthritis and inflammatory bowel disease.
Freshly isolated primary human neutrophils (5×10^6 cells/mL) were incubated with the required concentrations of compound or vehicle for 30 minutes at 37° C. in HBSS buffer (pH 7.4) containing Ca^2+. 100 nM wortmannin was used as a positive control. Aliquots of each sample were transferred to a microtitre plate to which luminol (1 μM); obtained from Sigma; Catalogue No. A8511 is added. Activation of the neutrophils was immediately initiated by addition of (1 μM) fMLP; obtained from Sigma, Catalogue No. F3506. Light output from each well was recorded for 30 minutes in a microplate luminometer. Total light output (integral of the time-course) was determined for each well. Inhibitory activities of test drugs against neutrophil ROS generation is expressed as percentage activity relative to a no drug control (100% activation or generation of ROS) containing 0.25% DMSO. Concentration of test compound required to inhibit the generation of ROS to 50% of control values (IC50's) were determined from concentration-response curves by non-linear regression analysis.

[6] = 100 mg/kg intracolonically at 12 h intervals for one week
[7] = 100 mg/kg intracolonically at 12 h intervals for one week, day 7
[8] = read-out: IC50 RANGE (μM) >100, ROS production, X marks this range
[9] = read-out: IC50 range (μM) 10-100
[10] = read-out: EC50 range (μM) 0.1-1
[11] = read-out: IC50 RANGE (μM) <1, ROS production, X marks this range

T1 sequence (Q14432 whole entry): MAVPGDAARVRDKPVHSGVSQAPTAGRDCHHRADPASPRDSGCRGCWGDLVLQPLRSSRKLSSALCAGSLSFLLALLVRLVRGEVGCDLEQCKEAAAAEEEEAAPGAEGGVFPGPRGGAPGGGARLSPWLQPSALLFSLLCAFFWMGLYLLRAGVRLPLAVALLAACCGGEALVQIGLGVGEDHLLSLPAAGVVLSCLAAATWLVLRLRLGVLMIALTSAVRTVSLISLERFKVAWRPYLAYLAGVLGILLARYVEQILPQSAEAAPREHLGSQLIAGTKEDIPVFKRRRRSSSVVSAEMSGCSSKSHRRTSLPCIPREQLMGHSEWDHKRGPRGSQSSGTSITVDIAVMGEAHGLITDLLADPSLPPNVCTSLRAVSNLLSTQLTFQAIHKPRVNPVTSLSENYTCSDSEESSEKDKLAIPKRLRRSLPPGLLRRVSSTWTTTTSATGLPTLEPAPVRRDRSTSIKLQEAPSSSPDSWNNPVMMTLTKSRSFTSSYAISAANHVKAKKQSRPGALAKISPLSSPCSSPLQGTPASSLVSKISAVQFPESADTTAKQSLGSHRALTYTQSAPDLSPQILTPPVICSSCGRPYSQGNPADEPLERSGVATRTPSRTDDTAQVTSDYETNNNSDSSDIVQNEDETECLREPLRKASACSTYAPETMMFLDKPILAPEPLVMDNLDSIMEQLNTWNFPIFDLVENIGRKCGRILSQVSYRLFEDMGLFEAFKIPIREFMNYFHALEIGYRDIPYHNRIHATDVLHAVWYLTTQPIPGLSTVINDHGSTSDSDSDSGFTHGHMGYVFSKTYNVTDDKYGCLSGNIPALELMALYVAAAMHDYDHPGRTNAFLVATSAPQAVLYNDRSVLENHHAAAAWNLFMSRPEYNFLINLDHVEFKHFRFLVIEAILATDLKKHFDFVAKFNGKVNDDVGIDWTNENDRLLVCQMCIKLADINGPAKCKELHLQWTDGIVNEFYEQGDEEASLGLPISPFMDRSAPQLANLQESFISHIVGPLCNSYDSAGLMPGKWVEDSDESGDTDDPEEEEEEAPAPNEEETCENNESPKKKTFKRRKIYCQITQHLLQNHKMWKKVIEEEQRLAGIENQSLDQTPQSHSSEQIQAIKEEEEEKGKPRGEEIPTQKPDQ

Row | SMILES | EC50 ([2]; read-out: EC50 range (μM) 1-25) [µM] | IC50 [3] [µM] | PDE4:HARBS [4] | also measured
1 | Nc1ccc(O)c(C(=O)O)c1 [Compound 5-ASA, 5-aminosalicylic acid] | – | – | – | Body Weight Change (%) [1, 6]: −20.2 ± 3.4%; Mortality [1, 6]: 0/8; Adhesion (Incidence) [1, 7]: (7/8); Adhesion Score [1, 7]: 1.4 ± 0.3; Bowel Thickness (mm) [1, 7]: 2.66 ± 0.69 mm; Damage Score [1, 7]: 6.3 ± 0.8; Global Colitis Score [1, 7]: 10.41 ± 1.58; loss of body weight ([1]; 100 mg/kg, one-week study): ~20%; MPO Activity (U/mg) ([1]; colonic tissue, 100 mg/kg intracolonically at 12 h intervals for one week, day 7): 67.5 ± 8.8 U/mg; Diarrhea ([1]; incidence, 100 mg/kg intracolonically at 12 h intervals for one week, day 7, 100 mg/kg): significantly reduce and 1/8; Histology Score ([1]; percentage of luminal surface ulcerated, 100 mg/kg intracolonically for one week, day 7): 91.4 ± 5.9
2 | COc1ccc([C@H]2COC(=O)C(Cc3ccc(OCc4ccccc4)c(OC)c3)C2)cc1OC (some centres unmarked) [Compound 22] | 1 to 25 | > 100 | <1 | IC50 [5, 8]: > 100 µM
3 | COc1ccc([C@@H]2CCC(=O)NC2)cc1OC [Compound 46] | 1 to 25 | > 100 | >1 | IC50 ([5]; ROS production, X marks this range, read-out: IC50 RANGE (μM) 10-100): 10 to 100 µM
4 | COc1ccc([C@@H]2CCC(=O)N(Cc3ccccc3)C2)cc1OC [Compound 47] | 1 to 25 | – | – | IC50 [3, 9]: 10 to 100 µM; IC50 ([5]; ROS production, X marks this range, read-out: IC50 RANGE (μM) 1-10): 1 to 10 µM
5 | COc1ccc([C@@H]2CCC(=O)NC2)cc1OC1CCCC1 [Compound 58] | – | > 100 | >1 | EC50 [2, 10]: 0.1 to 1 µM; IC50 [5, 11]: < 1 µM
6 | COc1cc(CC2C[C@@H](c3ccc(OC)c(OC4CCCC4)c3)CNC2=O)ccc1OCc1ccccc1 (some centres unmarked) [Compound 61] | 1 to 25 | – | <1 | IC50 [3, 9]: 10 to 100 µM; IC50 [5, 8]: > 100 µM
7 | COc1ccc([C@H]2COC(=O)C(Cc3ccc(F)c(F)c3)C2)cc1OC (some centres unmarked) [Compound 77] | 1 to 25 | – | – | IC50 [3, 9]: 10 to 100 µM; IC50 [5, 8]: > 100 µM
8 | COc1ccc([C@H]2COC(=O)C(Cc3ccc(OCc4ccccc4)c(OCc4ccccc4)c3)C2)cc1OC (some centres unmarked) [Compound 79] | – | > 100 | <1 | EC50 [2, 10]: 0.1 to 1 µM; IC50 [5, 8]: > 100 µM
9 | COc1ccc([C@H]2COC(=O)C(Cc3ccc(O)c(O)c3)C2)cc1OC (some centres unmarked) [Compound 80] | 1 to 25 | – | – | IC50 [3, 9]: 10 to 100 µM; IC50 [5, 11]: < 1 µM
10 | COc1ccc([C@H]2COC(=O)C(Cc3ccc(O)c(N)c3)C2)cc1OC1CCCC1 (some centres unmarked) [Compound 94] | – | > 100 | >1 | EC50 [2, 10]: 0.1 to 1 µM; IC50 [5, 11]: < 1 µM
11 | COc1ccc([C@H]2COC(=O)C(C)C2)cc1OC1CCCC1 (some centres unmarked) [Compound 95] | – | > 100 | – | –
12 | C=CCC1C[C@@H](c2ccc(OC)c(OC3CCCC3)c2)COC1=O (some centres unmarked) [Compound 96] | – | > 100 | – | –
13 | COc1ccc([C@H]2COC(=O)C(Cc3ccc(O)c(N)c3)C2)cc1Cc1ccccc1 (some centres unmarked) [Compound 114] | – | > 100 | – | –
14 | COc1ccc([C@H]2COC(=O)C(Cc3cccc(O)c3)C2)cc1OC (some centres unmarked) [Compound 131] | 1 to 25 | > 100 | – | IC50 [5, 11]: < 1 µM
15 | COc1ccc(CC2C[C@@H](c3ccc(OC)c(OC)c3)COC2=O)cc1 (some centres unmarked) [Compound 132] | 1 to 25 | – | <1 | IC50 [3, 9]: 10 to 100 µM; IC50 [5, 8]: > 100 µM
16 | COc1ccc([C@H]2COC(=O)C(Cc3ccc(O)cc3)C2)cc1OC (some centres unmarked) [Compound 133] | 1 to 25 | > 100 | <1 | IC50 [5, 11]: < 1 µM
17 | COc1ccc([C@H]2COC(=O)C(Cc3ccccc3)C2)cc1OC (some centres unmarked) [Compound 139] | 1 to 25 | > 100 | – | IC50 [5, 8]: > 100 µM
18 | CCOc1cc(C2CCC(=O)OC2)ccc1OC (centres unmarked) [Compound 153] | 1 to 25 | – | >1 | IC50 [5, 11]: < 1 µM

Row | SMILES | EC50 ([2]; read-out: EC50 range (μM) 1-25) [µM] | IC50 [3] [µM] | PDE4:HARBS [4] | also measured
19 | CCCOc1cc(C2CCC(=O)OC2)ccc1OC (centres unmarked) [Compound 154] | 1 to 25 | – | >1 | IC50 [5, 11]: < 1 µM
20 | COc1ccc([C@@H]2CCC(=O)OC2)cc1OCC1CCCCC1 [Compound 158] | – | > 100 | <1 | EC50 [2, 10]: 0.1 to 1 µM
21 | CCCCCOc1cc([C@@H]2CCC(=O)OC2)ccc1OC [Compound 159] | – | > 100 | >1 | EC50 ([2]; read-out: EC50 range (μM) >25): > 25 µM
22 | CCCCCCOc1cc([C@@H]2CCC(=O)OC2)ccc1OC [Compound 160] | 1 to 25 | > 100 | <1 | –
23 | CCCCCCCOc1cc([C@@H]2CCC(=O)OC2)ccc1OC [Compound 161] | – | > 100 | <1 | EC50 ([2]; read-out: EC50 range (μM) >25): > 25 µM
24 | CCCCCCCCOc1cc([C@@H]2CCC(=O)OC2)ccc1OC [Compound 162] | – | > 100 | – | EC50 ([2]; read-out: EC50 range (μM) >25): > 25 µM
25 | COc1ccc([C@H]2COC(=O)C(Cc3cccc(C(F)(F)F)c3)C2)cc1OC1CCCC1 (some centres unmarked) [Compound 169] | – | – | <1 | –
26 | COc1ccc([C@H]2COC(=O)C(Cc3ccc4c(c3)OCO4)C2)cc1OC1CCCC1 (some centres unmarked) [Compound 171] | – | – | <1 | –
27 | COc1ccc([C@H]2COC(=O)C(Cc3cccc(OCc4ccccc4)c3)C2)cc1OC1CCCC1 (some centres unmarked) [Compound 172] | – | – | <1 | –
28 | COc1ccc([C@H]2COC(=O)C(Cc3ccc(C)c([N+](=O)[O-])c3)C2)cc1OC1CCCC1 (some centres unmarked) [Compound 176] | – | – | >1 | –
29 | COc1ccc(CC2C[C@@H](c3ccc(OC)c(OC4CCCC4)c3)COC2=O)cc1O (some centres unmarked) [Compound 180] | – | – | >1 | –
30 | COc1ccc([C@H]2COC(=O)C(Cc3cccc(O)c3)C2)cc1OC1CCCC1 (some centres unmarked) [Compound 182] | – | – | <1 | –
31 | COc1ccc([C@H]2COC(=O)C(Cc3ccc(O)cc3)C2)cc1OC1CCCC1 (some centres unmarked) [Compound 183] | – | – | <1 | –
32 | COc1ccc([C@H]2COC(=O)C(Cc3ccc(N)cc3)C2)cc1OC1CCCC1 (some centres unmarked) [Compound 185] | – | – | >1 | –
33 | COc1ccc(N)cc1CC1C[C@@H](c2ccc(OC)c(OC3CCCC3)c2)COC1=O (some centres unmarked) [Compound 186] | – | – | >1 | –
34 | COc1ccc([C@H]2COC(=O)C(Cc3ccc(C)c(N)c3)C2)cc1OC1CCCC1 (some centres unmarked) [Compound 187] | – | – | >1 | –
35 | COc1cc2c(cc1OC)-c1c/c(=N\c3c(C)cc(C)cc3C)n(C)c(=O)n1CC2 [trequinsin, reference compound] | – | – | – | effect in PDE3 assay ([3]; platelet cell extract, cAMP as substrate): potent inhibitor

Reference: patent US20030186943A1, “Substituted gamma-phenyl-delta-lactams and uses related thereto” (Inflazyme Pharmaceuticals Ltd., priority 1998, published 2003)
